Among the data in PubChem BioAssay (NCI) are TGI and GI50 values, retold here.

Among the test systems are EKVX NSCLC; OVCAR-3 ovarian; ACHN renal; A498 renal; RPMI-8226 leukemia; HCT-15 colon; DU-145 prostate; SK-MEL-5 melanoma; MDA-MB-435; SF-268 CNS.
What all share (assay): growth of human tumour cells (NCI), 48 h

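Briefly, cells in 96-well plates were exposed to five compound concentrations for 48 h, and endpoints were estimated by linear interpolation. GI50 = concentration required for 50% inhibition of growth. The concentration for full growth arrest is given as TGI.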

Turning to `O=C(/C=N/O)Nc1cc(Cl)c(Cl)cc1Cl`, the TGI with EKVX NSCLC is 96.9 µM; with OVCAR-3 ovarian, 79.5 µM; in the assay on ACHN renal it was over 100 µM; in the assay with A498 renal, 55.5 µM; in the assay on RPMI-8226 leukemia it was 88.8 µM; with HCT-15 colon, over 100 µM. In addition, the TGI in the assay on DU-145 prostate is over 100 µM; with SK-MEL-5 melanoma, 33 µM; with MDA-MB-435, 67 µM; with SF-268 CNS, over 100 µM.
Turning to `OC(COc1ccc(F)cc1)Cn1cnc2c(Cl)ncnc21` (centres undefined), the GI50 is over 100 µM in the assay on EKVX NSCLC; 74 µM with OVCAR-3 ovarian; 62.4 µM in the assay on ACHN renal; over 100 µM with A498 renal; 39.7 µM in the assay with RPMI-8226 leukemia; 32.4 µM in the assay on HCT-15 colon. Moreover, the GI50 is over 100 µM in the assay on DU-145 prostate, 81.4 µM in the assay with SK-MEL-5 melanoma, 41.6 µM in the assay on MDA-MB-435 and 97.4 µM in the assay with SF-268 CNS. Further, the TGI in the assay with EKVX NSCLC, in the assay on OVCAR-3 ovarian, with ACHN renal, with A498 renal, in the assay on RPMI-8226 leukemia and in the assay with HCT-15 colon was over 100 µM throughout. Also, the TGI in the assay on DU-145 prostate, in the assay with SK-MEL-5 melanoma, in the assay with MDA-MB-435 and in the assay on SF-268 CNS was over 100 µM in each case.
Regarding `Cc1nccc2c3ccc(OCc4cn(-c5ccc(Cl)cc5)nn4)cc3n(CCCc3ccccc3)c12`, the GI50 with EKVX NSCLC was 12.3 µM; in the assay with OVCAR-3 ovarian, 6.68 µM; in the assay on ACHN renal it was 1.57 µM; in the assay with A498 renal it was over 33.3 µM; in the assay on RPMI-8226 leukemia it was 2.45 µM; in the assay with HCT-15 colon, 2.57 µM. For the same molecule, the GI50 in the assay on DU-145 prostate is 4.33 µM; with SK-MEL-5 melanoma it was 25.8 µM; with MDA-MB-435, 2 µM; with SF-268 CNS, 4.66 µM. Also, the TGI in the assay on EKVX NSCLC is over 33.3 µM; with OVCAR-3 ovarian, 17.7 µM; in the assay on ACHN renal it was 8.5 µM; in the assay on A498 renal, over 33.3 µM; in the assay with RPMI-8226 leukemia, over 33.3 µM; in the assay on HCT-15 colon, over 33.3 µM. For the same molecule, the TGI in the assay with DU-145 prostate was over 33.3 µM; with SK-MEL-5 melanoma, over 33.3 µM; with MDA-MB-435, over 33.3 µM; with SF-268 CNS, 17.5 µM.
With `CS(=O)(=O)Nc1cccc(-c2cc(-c3ccccc3Cl)c(C#N)c(N)n2)c1`, the GI50 in the assay with EKVX NSCLC was 2.38 µM; in the assay on OVCAR-3 ovarian it was 0.298 µM; in the assay with ACHN renal it was 0.679 µM; in the assay on A498 renal, 0.669 µM; in the assay on RPMI-8226 leukemia it was 0.702 µM; with HCT-15 colon, 0.402 µM. Besides, the GI50 with DU-145 prostate was 1.17 µM; in the assay on SK-MEL-5 melanoma, 0.448 µM; in the assay on MDA-MB-435, 0.165 µM; with SF-268 CNS it was 1.05 µM. In addition, the TGI with EKVX NSCLC worked out at 21.4 µM; in the assay on OVCAR-3 ovarian, 2.8 µM; with ACHN renal, 17.6 µM; in the assay on A498 renal, 14.4 µM; in the assay on RPMI-8226 leukemia, 27.5 µM; in the assay on HCT-15 colon it was 15.8 µM. Also, the TGI turned out to be 13 µM in the assay with DU-145 prostate, 13.6 µM in the assay on SK-MEL-5 melanoma, 1.76 µM in the assay on MDA-MB-435 and 19.1 µM with SF-268 CNS.
In the case of `CCN(CC)c1ccc2c(c1)Oc1nc(N)c(C#N)c(N)c1C2Sc1ccc(OC)cc1` (centres undefined), the GI50 was 0.479 µM in the assay with EKVX NSCLC; 1.69 µM in the assay on OVCAR-3 ovarian; 1.59 µM in the assay on ACHN renal; 2.29 µM with A498 renal; 1.96 µM with RPMI-8226 leukemia; 1.53 µM with HCT-15 colon. For the same molecule, the GI50 is 1.82 µM in the assay on DU-145 prostate, 1.54 µM with SK-MEL-5 melanoma, 1.79 µM in the assay on MDA-MB-435 and 1.85 µM in the assay on SF-268 CNS. The TGI in the assay on EKVX NSCLC stood at 1.97 µM; in the assay on OVCAR-3 ovarian, 3.1 µM; with ACHN renal it was 2.94 µM; in the assay on A498 renal, 4.14 µM; in the assay on RPMI-8226 leukemia, 5.02 µM; in the assay with HCT-15 colon, 3.11 µM. Besides, the TGI was determined as 3.25 µM in the assay with DU-145 prostate, 2.9 µM in the assay with SK-MEL-5 melanoma, 3.4 µM with MDA-MB-435 and 3.58 µM in the assay on SF-268 CNS.
Take `N#CSc1c[nH]c2ccc(/C=C/C(=O)/C=C(/C=C/c3ccc4[nH]cc(SC#N)c4c3)OB(F)F)cc12`: the GI50 with EKVX NSCLC is 0.535 µM; with OVCAR-3 ovarian it was 0.264 µM; in the assay with ACHN renal it was 0.208 µM; in the assay with A498 renal it was 3.24 µM; in the assay with RPMI-8226 leukemia it was 0.522 µM; in the assay with HCT-15 colon, 0.249 µM. The GI50 with DU-145 prostate was 0.694 µM; in the assay with SK-MEL-5 melanoma, 1.37 µM; with MDA-MB-435, 1.44 µM; in the assay with SF-268 CNS it was 1.12 µM. Besides, the TGI with EKVX NSCLC worked out at 3.53 µM; in the assay on OVCAR-3 ovarian, 0.762 µM; in the assay on ACHN renal, 0.471 µM; in the assay on A498 renal, 12.3 µM; in the assay on HCT-15 colon, 1.09 µM; in the assay with DU-145 prostate it was 2.55 µM. Also, the figures for the TGI with SK-MEL-5 melanoma, in the assay with MDA-MB-435 and in the assay with SF-268 CNS were 2.93 µM, 3.25 µM and 2.8 µM, respectively.
Turning to `CC(=O)N1c2ccccc2NC2=C(C(=O)N(Cc3ccccc3)C2(C)C)C1c1ccco1` (centres undefined), the GI50 is 1.73 µM in the assay on EKVX NSCLC; 0.208 µM in the assay on OVCAR-3 ovarian; 1.35 µM with ACHN renal; 0.727 µM in the assay with A498 renal; 0.758 µM with RPMI-8226 leukemia; 1.2 µM in the assay on HCT-15 colon. Besides, the GI50 with DU-145 prostate is 0.115 µM; with SK-MEL-5 melanoma it was 0.871 µM; in the assay with MDA-MB-435 it was 0.277 µM; in the assay with SF-268 CNS it was 1.28 µM. Moreover, the TGI in the assay with EKVX NSCLC is over 25 µM; in the assay on OVCAR-3 ovarian, 1.42 µM; in the assay on ACHN renal, over 25 µM; with A498 renal it was over 7.06 µM; with RPMI-8226 leukemia, over 25 µM; with HCT-15 colon, over 25 µM. The TGI with DU-145 prostate was over 25 µM; in the assay with SK-MEL-5 melanoma, over 25 µM; in the assay with MDA-MB-435, 0.859 µM; in the assay with SF-268 CNS it was over 25 µM.
